“And” between values parts separate entries of the source, which are not always exact repeats. Equal values may be shown once. Read-outs that look alike come from different tables or passages of the source.
Experiments:
M. tuberculosis Erdman [1] = type: in vivo, Mycobacterium tuberculosis; details: BALB/c, 4 weeks of treatment
M. tuberculosis Erdman [2] = type: in vivo, Mycobacterium tuberculosis
[3] = BALB/c, single 25 mg/kg oral dose of BDQ
[4] = C3HeB/FeJ; for AUC168h: single 25 mg/kg oral dose of BDQ
in vivo [5] = details: BALB/c, mouse, po, 25 mg/kg; for Kp / Cmax / half-life / Tmax: single 25 mg/kg oral dose of BDQ; for half-life: t1/2, BALB/c
in vivo [6] = details: C3HeB/FeJ, mouse, po, 25 mg/kg; for Kp / Cmax / half-life / Tmax: single 25 mg/kg oral dose of BDQ; for half-life: t1/2, C3HeB/FeJ
in vivo [7] = details: BALB/c and C3HeB/FeJ, mouse, 25 mg/kg
[8] = C3HeB/FeJ less-responsive subpopulation, BDQ 10 mg/kg
[9] = AUCUL/AUCplasma, uninvolved lung

COc1nc2ccc(Br)cc2cc1[C@@H](c1ccccc1)[C@@](O)(CCN(C)C)c1cccc2ccccc12 [BDQ, bedaquiline]
log10 CFU reduction in lungs (M. tuberculosis Erdman [1]; BDQ 10 mg/kg oral gavage): 3.1 log10 CFU | log10 CFU reduction in lungs (M. tuberculosis Erdman [1]; BDQ 25 mg/kg oral gavage): 4.1 log10 CFU | activity against the less-responsive subpopulation (M. tuberculosis Erdman [2]; [8]): only bacteriostatic | rate of decrease in log10 CFU in the lungs between 4 and 8 weeks of treatment (M. tuberculosis Erdman [2]; [8]): 0.0129 log10 CFU/week | rate of decrease in log10 CFU in the lungs between 4 and 8 weeks of treatment (M. tuberculosis Erdman [2]; C3HeB/FeJ responsive subpopulation, BDQ 10 mg/kg): 0.4392 log10 CFU/week | rate of decrease in log10 CFU in the lungs between 4 and 8 weeks of treatment (M. tuberculosis Erdman [2]; C3HeB/FeJ responsive subpopulation, BDQ 25 mg/kg): 0.3606 log10 CFU/week | AUC168h ([3]; lesion (type III), 25 mg/kg): 949 µg·h/g and 949.6 µg·h/g | AUC168h ([3]; uninvolved lung): 956.6 µg·h/g | AUC168h ([3]; whole lung): 694.0 µg·h/g | concentration in dissected caseum of type I granulomas (LC/MS/MS) ([4]; 8 h following a single 25 mg/kg dose of BDQ, preliminary): 974.5 ng/g | AUC168h ([4]; lesion (type I)): 387.1 µg·h/g | AUC168h ([4]; uninvolved lung): 653.9 µg·h/g | AUC168h ([4]; whole lung): 739.42 µg·h/g | AUC(0-t) (in vivo [5]): 33700 ng·h/mL | Kp (in vivo [5]; AUCLes/AUCplasma, lesion (type III)): 28.2 | Kp (in vivo [5]; [9]): 28.4 | Kp (in vivo [5]; AUCWL/AUCplasma, whole lung): 20.6 | Cmax (in vivo [5]; lesion (cellular non-necrotizing, type III)): 31700 ng/g | Cmax (in vivo [5]; uninvolved lung): 36000 ng/g | Cmax (in vivo [5]; whole lung): 22100 ng/g | half-life (in vivo [5]; lesion (type III)): 85.5 h | half-life (in vivo [5]; uninvolved lung): 67.4 h | half-life (in vivo [5]; whole lung): 74.5 h | Tmax (in vivo [5]; lesion (type III)): 8 h | Tmax (in vivo [5]; whole lung): 8 h | AUC(0-t) (in vivo [6]): 35900 ng·h/mL | Kp (in vivo [6]; AUCLes/AUCplasma, lesion (type I)): 10.8 | Kp (in vivo [6]; [9]): 18.2 | Kp (in vivo [6]; AUCWL/AUCplasma, whole lung): 20.6 | Cmax (in vivo [6]; lesion (caseous necrotic granuloma, type I)): 10100 ng/g | Cmax (in vivo [6]; plasma): 2720 ng/mL | Cmax (in vivo [6]; uninvolved lung): 23300 ng/g | Cmax (in vivo [6]; whole lung): 22900 ng/g | half-life (in vivo [6]; lesion (type I)): 104 h | half-life (in vivo [6]; uninvolved lung): 84.1 h | half-life (in vivo [6]; whole lung): 130 h | Tmax (in vivo [6]; lesion (type I)): 8 h | Tmax (in vivo [6]; plasma): 4 h | Tmax (in vivo [6]; uninvolved lung): 8 h | Tmax (in vivo [6]; whole lung): 8 h | Tmax (in vivo [7]): 3 h

Source: paper PMC4874602 (ACS Infectious Diseases, 2016)
